In the supplement of paper PMC6335503:
± gives the standard deviation of the averaged measurements.

How the values were obtained:
Experiment in all cases: cell viability, percent of DMSO control (CellTiter-Glo); higher = more viable cells
Settings in all cases: 72 h
[1] = test system: DFTD cell line T3 (06/0368)
Method: (§1)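 Eight-point dose titration of 41 screen hits in triplicate wells on four Tasmanian devil DFTD tumour cell lines (T1-T4) and devil fibroblasts, 384-well plates. Viability was read by CellTiter-Glo (ATP) after 72 h at 37 °C. Percent of control per plate: DMSO wells = 100%, positive-control wells = 0%.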

[2] = test system: DFTD cell line T1 (06/2887)
Method: as §1

[3] = test system: DFTD cell line T4 (07/0192)
Method: as §1

[4] = test system: DFTD cell line T2 (05/2569)
Method: as §1

Compound | cell viability ([1]; 0.00617 µM) | cell viability ([1]; 0.0185 µM) | cell viability ([1]; 0.0556 µM) | cell viability ([1]; 0.166667 µM) | cell viability ([1]; 0.5 µM) | cell viability ([1]; 1.5 µM) | cell viability ([1]; 4.5 µM) | cell viability ([1]; 13.5 µM) | cell viability ([2]; 0.00617 µM) | cell viability ([2]; 0.0185 µM) | cell viability ([2]; 0.0556 µM) | cell viability ([2]; 0.166667 µM) | cell viability ([2]; 0.5 µM) | cell viability ([2]; 1.5 µM) | cell viability ([2]; 4.5 µM) | cell viability ([2]; 13.5 µM) | cell viability ([3]; 0.00617 µM) | cell viability ([3]; 0.0185 µM) | cell viability ([3]; 0.0556 µM) | cell viability ([3]; 0.166667 µM) | cell viability ([3]; 0.5 µM) | cell viability ([3]; 1.5 µM) | cell viability ([3]; 4.5 µM) | cell viability ([3]; 13.5 µM) | cell viability ([4]; 0.00617 µM) | cell viability ([4]; 0.0185 µM) | cell viability ([4]; 0.0556 µM) | cell viability ([4]; 0.166667 µM) | cell viability ([4]; 0.5 µM) | cell viability ([4]; 1.5 µM) | cell viability ([4]; 4.5 µM) | cell viability ([4]; 13.5 µM)
COc1cc2ncnc(Nc3ccc(F)c(Cl)c3)c2cc1NC(=O)/C=C/CN1CCCCC1 | 108 ± 16% | 97.5 ± 14% | 91.6 ± 18% | 77.7 ± 1.5% | 39.7 ± 5.3% | 38.3 ± 3.5% | 27.9 ± 7% | -10.9 ± 5.5% | 97.4 ± 26% | 108 ± 39% | 94.3 ± 19% | 58.2 ± 6.1% | 36.2 ± 4% | 27.5 ± 6.9% | 30.8 ± 20% | 19.8 ± 14% | 107 ± 7.5% | 96.2 ± 33% | 88 ± 13% | 77.2 ± 1.9% | 25 ± 6.3% | 26.5 ± 3.8% | 11.7 ± 14% | -11.1 ± 6% | 112 ± 30% | 95.2 ± 46% | 106 ± 12% | 90.6 ± 2.5% | 81.1 ± 22% | 51 ± 8.7% | 49.8 ± 13% | 50.5 ± 13%
CS(=O)(=O)CCNCc1ccc(-c2ccc3ncnc(Nc4ccc(OCc5cccc(F)c5)c(Cl)c4)c3c2)o1.Cc1ccc(S(=O)(=O)O)cc1 | 96 ± 14% | 105 ± 4.2% | 99.2 ± 22% | 97.4 ± 13% | 63 ± 14% | 54.1 ± 6% | 42.2 ± 2.4% | 40.8 ± 22% | 127 ± 30% | 119 ± 34% | 87.5 ± 10% | 102 ± 13% | 46.3 ± 14% | 28.1 ± 1.4% | 24 ± 4.6% | 31.8 ± 14% | 102 ± 3.8% | 123 ± 22% | 101 ± 20% | 91.8 ± 9.4% | 62.7 ± 8.4% | 46.1 ± 8% | 22.1 ± 4.5% | 28.7 ± 14% | 109 ± 37% | 114 ± 20% | 98.2 ± 27% | 117 ± 23% | 83.3 ± 12% | 44.3 ± 7.7% | 35.8 ± 6.4% | 32.3 ± 14%
